Patent US20070259879A1, “Piperazine and piperidine biaryl derivatives” (priority 2006, published 2007)

System: HIV-1 pseudotyped virus
Assay: HIV-1 pseudotyped virus assay (luciferase reporter gene, single cycle of infection)
Format: cell-based
Settings: Human immunodeficiency virus 1, CCR5, 72 h, read-out: Activity (antiviral activity, IC50)
Outline: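 Single-cycle luciferase-reporter pseudovirus made by co-transfecting 293T cells with HIV-1 envelope plasmid plus env-defective, nef-replaced backbone; infects CD4/CCR5 or CXCR4 target cells. Compounds added before virus, serial dilutions in duplicate, two experiments; 3-day culture, lysis, luminescence. IC50 = 50% signal reduction interpolated from titration curve.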

Row | SMILES | IC50 [µM]
1 | C[C@@H]1CN(C(=O)c2ccccc2)CCN1C(=O)C(=O)c1ccc(-c2cc[nH]n2)c(Cl)c1N(C)C [Example 221] | < 5
2 | C[C@@H]1CN(C(=O)c2ccccc2)CCN1C(=O)C(=O)c1cc(Cl)c(-c2cc[nH]n2)cc1N(C)C [Example 222] | > 5
3 | C[C@@H]1CN(C(=O)c2ccccc2)CCN1C(=O)C(=O)c1ccc(-c2cc[nH]n2)cc1O [Example 223] | < 5
4 | Cc1cc(-c2ccc(C(=O)C(=O)N3CCN(C(=O)c4ccccc4)C[C@H]3C)c(O)c2)on1 [Example 224] | > 5
5 | C[C@@H]1CN(C(=O)c2ccccc2)CCN1C(=O)C(=O)c1ccc(Br)c(Cl)c1 [Example 225] | < 5
6 | COc1cc(Br)ccc1C(=O)C(=O)N1CCN(C(=O)c2ccccc2)C[C@H]1C [Example 226] | < 5
7 | CNc1cc(-c2cc[nH]n2)ccc1C(=O)C(=O)N1CCN(C(=O)c2ccccc2)C[C@H]1C [Example 227] | > 5
8 | COc1cc(Br)c(Cl)cc1C(=O)C(=O)N1CCN(C(=O)c2ccccc2)CC1 [Example 228] | < 5
9 | COc1cc(-c2onc(C)c2Cl)ccc1C(=O)C(=O)N1CCN(C(=O)c2ccccc2)C[C@H]1C [Example 229] | < 5
10 | C[C@@H]1CN(C(=O)c2ccccc2)CCN1C(=O)C(=O)c1cc(Cl)c(-c2cc[nH]n2)c(Cl)c1N [Example 230] | > 5
11 | C[C@@H]1CN(C(=O)c2ccccc2)CCN1C(=O)C(=O)c1ccc(-n2cncn2)c(Cl)c1 [Example 231] | > 5
12 | C[C@@H]1CN(C(=O)c2ccccc2)CCN1C(=O)C(=O)c1ccc(-n2ccnn2)c(Cl)c1 [Example 232] | > 5
13 | Cc1nnc(-c2ccc(C(=O)C(=O)N3CCN(C(=O)c4ccccc4)C[C@H]3C)cc2)s1 [Example 233] | < 5
14 | C[C@@H]1CN(C(=O)c2ccccc2)CCN1C(=O)C(=O)c1ccc(-c2nc[nH]n2)cc1 [Example 234] | < 5
15 | Cc1cc(-c2ccc(C(O)C(=O)N3CCN(C(=O)c4ccccc4)C[C@H]3C)cc2)on1 (stereo partly shown) [Example 235] | > 5
16 | COc1cc(-n2ccnn2)c(Cl)cc1C(=O)C(=O)N1CCN(C(=O)c2ccccc2)CC1 [Example 236] | < 5
17 | COc1cc(-c2cc[nH]n2)c(Cl)cc1C(=O)C(=O)N1C2CCC1CN(C(=O)c1ccccc1)C2 [Example 237] | > 5

Row | SMILES | IC50 [µM]
18 | COc1cc(OC)c(C(=O)C(=O)N2CCN(C(=O)c3ccccc3)C[C@H]2C)cn1 [Example 238] | > 5
19 | COc1cc(-c2cnn(C)c2)ncc1C(=O)C(=O)N1CCN(C(=O)c2ccccc2)C[C@H]1C [Example 239] | < 5
20 | CC1CN(C(=O)c2ccccc2)CCN1C(=O)C(=O)c1ccc(-n2cccn2)cc1 (stereo not shown) [Example 240] | < 5
21 | C[C@@H]1CN(C(=O)c2ccccc2)CCN1C(=O)C(=O)c1c[nH]c(-c2ccc3[nH]ccc3c2)c1 [Example 241] | > 5
22 | C[C@@H]1CN(C(=O)c2ccccc2)CCN1C(=O)C(=O)c1cnc(-c2ccccc2)c(Cl)c1O [Example 242] | > 5
23 | C[C@@H]1CN(C(=O)c2ccccc2)CCN1C(=O)C(=O)c1cnc(-c2cccs2)cc1O [Example 243] | > 5
24 | C[C@@H]1CN(C(=O)c2ccccc2)CCN1C(=O)C(=O)c1cnc(-c2ccccc2)cc1O [Example 244] | > 5
25 | C[C@@H]1CN(C(=O)c2ccccc2)CCN1S(=O)(=O)c1ccc(C(=O)c2cccs2)cc1 [Example 245] | > 5
26 | C[C@@H]1CN(C(=O)c2ccccc2)CCN1S(=O)(=O)c1ccc(C(=O)c2ccsc2)s1 [Example 246] | > 5
27 | CC1CN(C(=O)c2ccccc2)CCN1S(=O)(=O)c1ccc(C(=O)c2ccco2)cc1 (stereo not shown) [Example 247] | > 5
28 | C[C@@H]1CN(C(=O)c2ccccc2)CCN1S(=O)(=O)c1ccc(C(=O)c2ccon2)s1 [Example 248] | > 5
29 | CC1CN(C(=O)c2ccccc2)CCN1S(=O)(=O)c1ccc(C(=O)n2ccnc2)cc1 (stereo not shown) [Example 249] | > 5
30 | Cc1cc(C)n(-c2ccc(C(=O)C(=O)N3CCN(C(=O)c4ccccc4)C[C@H]3C)cc2)n1 [Example 250] | > 5
31 | C[C@@H]1CN(C(=O)c2ccccc2)CCN1C(=O)C(=O)c1cccc(-c2cnco2)c1 [Example 251] | > 5
32 | C[C@@H]1CN(C(=O)c2ccccc2)CCN1C(=O)C(=O)c1cccc(-c2ccccn2)c1 [Example 252] | > 5
33 | C[C@@H]1CN(C(=O)c2ccccc2)CCN1C(=O)C(=O)c1cccc(-c2ncccn2)c1 [Example 253] | > 5
34 | COc1cc(OC)nc(-c2ccc(C(=O)C(=O)N3CCN(C(=O)c4ccccc4)C[C@H]3C)cc2)n1 [Example 254] | > 5
